According to publication PMC8231113, “Protein Secondary Structure Affects Glycan Clustering in Native Mass Spectrometry” (Life, 2021):

Columns and labels:
GII.4 Saga P dimer = GII.4 Saga P dimer (Norovirus GII.4 (human norovirus), UniProt B5BTR7); assay: Native MS, specific glycan binding to P dimer after reference protein correction; set-up: species or system human norovirus (hNoV)
Description: (§1) Prior to MS analysis, purified P dimers were buffer exchanged to 150 mM ammonium acetate (Sigma-Aldrich, reagent grade ≥98%) at pH 7 via centrifugal filter units at 12,000× g at 4 °C (Vivaspin 500, MWCO 10000, Sartorius). Glycans for native MS analysis were mixed with 1 µM (per monomer) purified GII.4 Saga P dimer and 3 µM of the reference proteins at indicated concentrations. Native mass spectra were measured at room temperature in positive ion mode on a high mass modified LCT Premier mass spectrometer (Waters/Micromass, UK and MS Vision, the Netherlands) with a nano-ESI source. In house-made gold-coated electrospray capillaries were used for direct-sample infusion without any accessory chromatographic separation. The voltages and pressures were optimized for non-covalent protein complexes. The gas pressure used in the source hexapole was set between 6.5 and 6.8 × 10^−2 mbar argon optimized for minimal complex dissociation and the backing pressure of the source roughing pump was set between 7.0 and 8.5 mbar. Spectra were recorded with applied voltages for the capillary and cone of 1.20 kV and 240 V, respectively. Note that charge state distributions for P dimers were sometimes slightly shifted as was the degree of glycan clustering per charge state. These changes were highly variable and not quantifiable.
(§2) For calibration of the raw data, a 25 mg/mL cesium iodide spectrum from the same day was used. MassLynx V4.1 (Waters, Manchester, UK) was used to assign peak series to protein species and to determine the mass after minimal smoothing. Furthermore, OriginPro 2016 SR2 (OriginLab, Northampton, MA, USA) was used for spectral deconvolution and curve fitting. Correction for nonspecific protein-ligand clustering was performed as described. Corrected peak areas were averaged and normalized to the free-protein signal. Data were based on at least three independent measurements. Python code Panda and Numpy package were used to calculate the specific binding of P dimers according to the glycan clustering ratio obtained from the selected reference protein candidates. Seaborn and matplotlib.pyplot package were imported into a python script to plot the results. The module of sklearn.linear model was applied for linear regression. The matplotlib and heatmap package were used to plot the heatmap.
Data from native ESI MS measurements were translated into dissociation constants (KD values). The detailed calculations were based on the equations listed below. A protein (P) and a glycan ligand (L) form a complex through non-covalent interactions leading to a reversible association described by (Equation (1)):(1) P+L⇌PL when equilibrium is reached, the KD can be calculated directly from the concentrations via the law of mass action (Equation (2)):(2) KD=[Pfree][Lfree]/[PL]
(§3) Theoretically, the KD is calculated by measuring the concentration of the three components (Pfree, Lfree, PL) in solution. Usually, these values are only indirectly accessible because they require ligand titration up to binding saturation. However, native MS allows for the directly measurement of Pfree and PL, from which Lfree can be calculated using the input concentrations. In the present work, the non-covalent interaction was measured in the gas phase assuming identical ESI and detection efficiency for free and glycan-associated proteins, both for the analyte and the reference protein. […] For P dimers, the equations reflect glycan binding to the individual monomers assuming that binding sites on each monomer are equal and independent.
Using R described in Equation (3), the KD calculation can be re-written into Equation (4) with the known initial concentration of glycan ligand [L0] and protein [P0], adapted from Sun et al.:(3) R=PLequil∕Pequil=∑nA(PL^n+)∕n∕∑nA(P^n+)∕n (4) KD =L0−RP0/1+R/R […]

[1] = target: T1, L-lactic dehydrogenase from rabbit muscle (LDH) (Oryctolagus cuniculus, UniProt P13491); assay: Native MS glycan clustering to reference protein LDH; type: binding; conditions: on LDH
T1 construct: L-lactic dehydrogenase from rabbit muscle (LDH, CAS number 9001-60-9); purchased Sigma-Aldrich (Merck, Germany); host or cells: rabbit muscle
Description: as §1, §2, §3
Using R described in Equation (3), the KD calculation can be re-written into Equation (4) with the known initial concentration of glycan ligand [L0] and protein [P0], adapted from Sun et al.:(3) R=PLequil∕Pequil=∑nA(PL^n+)∕n∕∑nA(P^n+)∕n (4) KD =L0−RP0/1+R/R
For the carbohydrate-binding experiments, it was essential to keep the initial protein concentrations and pH value constant during the analysis of the protein-carbohydrate solutions. While acidification occurs in any ESI droplet, the remaining solution in the capillary changes pH over time. Therefore, accumulated spectra were obtained within 10 min after the voltages were applied to minimize the influence of pH changes during the measurements. […]

[2] = test system: mutated hNoV GII.4 MI001 P dimer; assay: Native MS corrected glycan binding to mutated MI001 P domain; set-up: species or system human norovirus (hNoV); conditions: cyt c reference; 100 µM glycan

`CC(=O)N[C@H]1[C@H](O[C@H]2[C@@H](O)[C@@H](CO)O[C@H](O[C@@H]3[C@H](O)[C@@H](O)[C@H](O[C@H]4[C@H](O)[C@@H](O)C(O)O[C@@H]4CO)O[C@@H]3CO)[C@@H]2O)O[C@H](CO)[C@H](O)[C@@H]1O` (stereo partly drawn) [Gb4, GalNAc β1-3 Galα1-4Galβ1-4Glc] was tested, and the “specific binding after ADH based protein clustering correction” value (GII.4 Saga P dimer; Gb4: any listed glycan concentration, HBGA B: 500 µM) was “no specific binding”, the “Bound number of carbohydrates on Saga P dimer” value (shortened to “Bound number … on Saga P dimer”) (GII.4 Saga P dimer; ref. protein ADH, glycan 100 µM) was 0 and the “Bound number … on Saga P dimer” value (GII.4 Saga P dimer; ref. protein ADH, glycan 200 µM) was 0. The “Bound number … on Saga P dimer” value (GII.4 Saga P dimer; ref. protein ADH, glycan 300 µM) was 0, the “Bound number … on Saga P dimer” value (GII.4 Saga P dimer; ref. protein ADH, glycan 400 µM) was 0 and the “Bound number … on Saga P dimer” value (GII.4 Saga P dimer; ref. protein ADH, glycan 500 µM) was 0. For the same molecule, the “Bound number … on Saga P dimer” value (GII.4 Saga P dimer; ref. protein CA, glycan 100 µM) was 1, the “Bound number … on Saga P dimer” value (GII.4 Saga P dimer; ref. protein CA, glycan 200 µM) was 1 and the “Bound number … on Saga P dimer” value (GII.4 Saga P dimer; ref. protein CA, glycan 300 µM) was 2. The “Bound number … on Saga P dimer” value (GII.4 Saga P dimer; ref. protein CA, glycan 400 µM) was 2, the “Bound number … on Saga P dimer” value (GII.4 Saga P dimer; ref. protein CA, glycan 500 µM) was 2 and the “Bound number … on Saga P dimer” value (GII.4 Saga P dimer; ref. protein Cyto c, glycan 100 µM) was 1. For the same molecule, the “Bound number … on Saga P dimer” value (GII.4 Saga P dimer; ref. protein Cyto c, glycan 200 µM) was 2, the “Bound number … on Saga P dimer” value (GII.4 Saga P dimer; ref. protein Cyto c, glycan 300 µM) was 3 and the “Bound number … on Saga P dimer” value (GII.4 Saga P dimer; ref. protein Cyto c, glycan 400 µM) was 3. For the same molecule, the “Bound number … on Saga P dimer” value (GII.4 Saga P dimer; ref. protein Cyto c, glycan 500 µM) was 4, the “Bound number … on Saga P dimer” value (GII.4 Saga P dimer; ref. protein GFP, glycan 100 µM) was 2 and the “Bound number … on Saga P dimer” value (GII.4 Saga P dimer; ref. protein GFP, glycan 200 µM) was 2. For the same molecule, the “Bound number … on Saga P dimer” value (GII.4 Saga P dimer; ref. protein GFP, glycan 300 µM) was 2, the “Bound number … on Saga P dimer” value (GII.4 Saga P dimer; ref. protein GFP, glycan 400 µM) was 2 and the “Bound number … on Saga P dimer” value (GII.4 Saga P dimer; ref. protein GFP, glycan 500 µM) was 2. The “Bound number … on Saga P dimer” value (GII.4 Saga P dimer; ref. protein LDH, glycan 100 µM) was 0, the “Bound number … on Saga P dimer” value (GII.4 Saga P dimer; ref. protein LDH, glycan 200 µM) was 0 and the “Bound number … on Saga P dimer” value (GII.4 Saga P dimer; ref. protein LDH, glycan 300 µM) was 0. The “Bound number … on Saga P dimer” value (GII.4 Saga P dimer; ref. protein LDH, glycan 400 µM) was 0, the “Bound number … on Saga P dimer” value (GII.4 Saga P dimer; ref. protein LDH, glycan 500 µM) was 1 and the “Bound number … on Saga P dimer” value (GII.4 Saga P dimer; ref. protein Myo, glycan 100 µM) was 2. For the same molecule, the “Bound number … on Saga P dimer” value (GII.4 Saga P dimer; ref. protein Myo, glycan 200 µM) was 3, the “Bound number … on Saga P dimer” value (GII.4 Saga P dimer; ref. protein Myo, glycan 300 µM) was 3 and the “Bound number … on Saga P dimer” value (GII.4 Saga P dimer; ref. protein Myo, glycan 400 µM) was 3. For the same molecule, the “Bound number … on Saga P dimer” value (GII.4 Saga P dimer; ref. protein Myo, glycan 500 µM) was 4, the “Bound number … on Saga P dimer” value (GII.4 Saga P dimer; ref. protein Ubq, glycan 100 µM) was 2 and the “Bound number … on Saga P dimer” value (GII.4 Saga P dimer; ref. protein Ubq, glycan 200 µM) was 3. For the same molecule, the “Bound number … on Saga P dimer” value (GII.4 Saga P dimer; ref. protein Ubq, glycan 300 µM) was 4, the “Bound number … on Saga P dimer” value (GII.4 Saga P dimer; ref. protein Ubq, glycan 400 µM) was 4 and the “Bound number … on Saga P dimer” value (GII.4 Saga P dimer; ref. protein Ubq, glycan 500 µM) was 4. The “Bound number … on Saga P dimer” value (GII.4 Saga P dimer; ref. protein apo-TFF, glycan 100 µM) was 0, the “Bound number … on Saga P dimer” value (GII.4 Saga P dimer; ref. protein apo-TFF, glycan 200 µM) was 0 and the “Bound number … on Saga P dimer” value (GII.4 Saga P dimer; ref. protein apo-TFF, glycan 300 µM) was 1. The “Bound number … on Saga P dimer” value (GII.4 Saga P dimer; ref. protein apo-TFF, glycan 400 µM) was 1, the “Bound number … on Saga P dimer” value (GII.4 Saga P dimer; ref. protein apo-TFF, glycan 500 µM) was 1 and the “Glycan-Clustering Ratio R” value ([1]; 100 µM glycan) was 0.35±0.04. For the same molecule, the “Glycan-Clustering Ratio R” value ([1]; 200 µM glycan) was 0.51±0.08, the “Glycan-Clustering Ratio R” value ([1]; 300 µM glycan) was 0.68±0.02 and the “Glycan-Clustering Ratio R” value ([1]; 400 µM glycan) was 0.80±0.01. The “Glycan-Clustering Ratio R” value ([1]; 500 µM glycan) was 0.91±0.06 and the “corrected binding to mutated MI001 P dimer” value [2] was “basically no binding”.
